pIC50: −log10 of the molar value.
Target: Angiotensin-converting enzyme (Cavia porcellus)
Experiment: Inhibition of guinea pig angiotensin I converting enzyme

SMILES | pIC50
CCOC(=O)C(CCc1ccccc1)NC(C)C(=O)N1Cc2ccccc2CC1C(=O)OCC (centres undefined) | 6.36
CCOC(=O)C(CCc1ccccc1)N(C)C(C)C(=O)N1Cc2ccccc2CC1C(=O)O (centres undefined) | < 5.00
CC(=O)SCC(C)C(=O)N1CCc2ccccc2C1 (centres undefined) | 4.31
CCOC(=O)C(CCc1ccccc1)NC(C)C(=O)N1Cc2cc(OC)c(OC)cc2CC1C(=O)OCC (centres undefined) | 6.28
CC(=O)SCC(C)C(=O)N1Cc2ccccc2C1C(=O)O (mixture of isomers) | 4.62
CC(CS)C(=O)N1CCc2ccccc2C1 (centres undefined) | 4.32
CC(=O)SCCC(=O)N1Cc2ccccc2C1C(=O)O (centres undefined) | 4.66
O=C(O)C1c2ccccc2CN1C(=O)CCS (centres undefined) | 4.24
CCOC(=O)[C@H](CCc1ccccc1)N[C@@H](C)C(=O)N1Cc2ccccc2[C@@H]1C(=O)O | < 6.00

Compounds with a higher pIC50, results first:

pIC50 | SMILES
6.52 | CCOC(=O)C(CCc1ccccc1)NC(C)C(=O)N1Cc2cc(OC)c(OC)cc2CC1C(=O)OCc1ccccc1 (centres undefined)
7.36 | CCOC(=O)[C@H](CCc1ccccc1)N[C@@H](C)C(=O)N1Cc2ccccc2[C@H]1C(=O)O
8.24 | CC(NC(CCc1ccccc1)C(=O)O)C(=O)N1CCc2ccccc2C1C(=O)O (centres undefined)
8.51 | CC(NC(CCc1ccccc1)C(=O)O)C(=O)N1Cc2ccccc2C1C(=O)O (centres undefined)
6.89 | CC(=O)SCC(C)C(=O)N1Cc2ccccc2CC1C(=O)O (racemic)
